Test [1] deals with Toxoplasma gondii. Nature of the test: Antiparasitic activity against Toxoplasma gondii. It is filed as functional, organism-based.
In test [2] the test system is Toxoplasma gondii. Nature of the test: Antiparasitic activity against Toxoplasma gondii assessed as parasitic growth inhibition. Type of test: functional, organism-based.
Test [3] addresses T1, Bifunctional dihydrofolate reductase-thymidylate synthase (Toxoplasma gondii, UniProt Q07422).
T1 sequence (Q07422 whole entry): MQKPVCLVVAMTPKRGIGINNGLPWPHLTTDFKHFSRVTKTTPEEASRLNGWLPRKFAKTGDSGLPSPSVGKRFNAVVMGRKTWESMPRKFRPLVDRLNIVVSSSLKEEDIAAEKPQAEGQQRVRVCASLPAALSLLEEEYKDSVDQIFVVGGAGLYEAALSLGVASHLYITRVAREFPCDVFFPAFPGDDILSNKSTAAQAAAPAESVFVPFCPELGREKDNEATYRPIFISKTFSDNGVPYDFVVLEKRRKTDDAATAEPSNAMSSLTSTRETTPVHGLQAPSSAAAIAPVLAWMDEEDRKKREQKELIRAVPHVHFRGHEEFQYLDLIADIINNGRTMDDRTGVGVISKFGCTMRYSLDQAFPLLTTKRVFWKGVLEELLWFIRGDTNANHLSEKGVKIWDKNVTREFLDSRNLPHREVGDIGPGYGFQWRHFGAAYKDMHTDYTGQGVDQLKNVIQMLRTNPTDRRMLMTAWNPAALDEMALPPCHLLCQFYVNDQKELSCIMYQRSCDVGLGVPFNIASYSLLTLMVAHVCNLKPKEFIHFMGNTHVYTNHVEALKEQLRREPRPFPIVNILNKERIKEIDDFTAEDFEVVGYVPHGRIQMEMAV
Nature of the test: Inhibition of Toxoplasma gondii Dihydrofolate reductase.

For test [4], the system named is Toxoplasma gondii. Put plainly: Antiparasitic activity against Toxoplasma gondii RH infected in human HFF cells. Type of test: functional, organism-based.
The subject of test [5] is Toxoplasma gondii. Put plainly: Antiparasitic activity against Toxoplasma gondii RH. Type of test: functional, organism-based.
The nature of test [6]: Inhibition of Toxoplasma gondii Farnesyl pyrophosphate synthase.
Test [7] deals with Toxoplasma gondii. Put plainly: Antiparasitic activity against Toxoplasma gondii RH tachyzoites infected in human HFF cells assessed as parasitic growth inhibition. Type of test: functional, organism-based.

Starred links: 1 amine or outer side, 2 acyl side, 3 side chain; linkers in the order of their positions; H or OH if unused. Non-standard residues stand in square brackets, D forms with d. Residues, ends and D or L forms follow the SMILES beside them. X1 = CC[C@@H](C)[C@@H](O[*:1])C(=O)[*:2]; NMeVal(β-OH) = CN[C@H](C(=O)O)C(C)(C)O; NMeF = CN[C@@H](Cc1ccccc1)C(=O)O; NMeV = CN[C@H](C(=O)O)C(C)C

Turning to `CCCCCCCCCCCCCCCCC1(C)SC(=O)C(CCC)=C1O` (configuration not stated), the IC50 (commonly the concentration needed to halve the response being measured) in test [1] was found to be 2 µM. As to `O=C1C(O)=C([C@H]2CC[C@H](c3ccc(Cl)cc3)CC2)C(=O)c2ccccc21` [ATOVAQUONE], the IC50 in test [2] was 0.07 µM. As for `O=C(c1cc(Br)c(F)[nH]1)c1cc(Cl)cc(Cl)c1O`, the IC50 in test [3] stood at 0.17 µM. Same read-out and setting: as for `CC[C@@H](C)[C@H]1OC(=O)[C@H](C(C)(C)O)N(C)C(=O)[C@H](CC(C)C)NC(=O)[C@H](C(C)C)N(C)C(=O)[C@H]([C@@H](C)CC)NC(=O)[C@@H]2CCCN2C(=O)[C@H](Cc2ccccc2)N(C)C(=O)[C@H](Cc2ccccc2)NC(=O)[C@H](C(C)C)N(C)C1=O` [BASIFUNGIN] (cyclo(F[NMeF]PI[NMeV]L[NMeVal(β-OH)][X1][NMeV])), the figure is 0.3 µM.

On to `CC1=CCC(C(C)(C)O)CC1` (configuration not stated), for which half-maximal inhibition in test [4] (IC50) was put at 4.4 µg/mL. For `COc1c(N2CCNC(C)C2)c(F)cc2c(=O)c(C(=O)O)cn(C3CC3)c12` (configuration not stated) [GATIFLOXACIN], the IC50 in test [2] was 4.1 µg/mL.

For the molecule `Oc1cc(O)c2ccc(-c3ccc(O)c(O)c3)[o+]c2c1` [LUTEOLINIDIN], in test [5], half-maximal inhibition (IC50) required 0.66 µg/mL. In test [3], `O=c1cc(-c2cccc3c2Sc2ccccc2S3)oc(N2CCOCC2)c1` [KU-55933] displayed an IC50 of 0.00215 µM. Turning to `CC(C)CCCc1ccc2c(c1)C(=O)C=C(N1CCCC1)C2=O`, the IC50 in test [4] and in test [2] was 0.32 µM in each case.

Regarding `Oc1ccccc1` [PHENOL], in test [4], the IC50 stood at 4.77 µg/mL. Turning to `C=CCc1cc(OC)c(O[C@@H](C)[C@H](O)c2ccc(O)c(OC)c2)c(OC)c1`, in test [5], the IC50 was 32.4 µg/mL. Molecule `CC[C@]1(C)NC(=O)[C@H](CCCCCC(=O)[C@@H](C)OC(=O)Oc2ccccc2)NC(=O)[C@H]2C[C@H](C)CN2C(=O)[C@H](Cc2ccccc2)NC1=O` returned an IC50 in test [6] of 0.0113 µM. As to `CC(C)=CCC/C(C)=C\C=O`, the IC50 in test [4] stood at 24 µg/mL. Still for that read-out and setting: as for `Cc1[nH]c2cc(F)cc(F)c2c(=O)c1-c1ccc(Oc2ccc(OC(F)(F)F)cc2)cc1`, the figure is 0.005 µM.

Regarding `O=C1CCC[C@@H]2[C@H]3CCC[N+]4([O-])CCC[C@@H](CN12)[C@@H]34` (some centres not stated) [OXYMATRINE], the IC50 in test [7] worked out at 843 µM. Still for that read-out and setting: as for `C=CCC1[C@H](O[Si](C)(C)C(C)(C)C)C[C@@H](C(=O)OC)N1CC=C` (some centres not stated), the figure is 5.6 µM. Molecule `COc1cc(O)c2ccc(-c3ccc(O)cc3)[o+]c2c1` gave a 50% inhibitory concentration (IC50) in test [5] of 1.48 µg/mL. Molecule `CCCCCCCCCCCCc1c(C)c(=O)c2ccccc2n1O` [COMPOUND A] had an IC50 in test [4] of 0.0004 µM. The same measure, in the same setting: as for `CCCCCCCCCCCCc1c(C)n(O)c2ccccc2c1=O`, the figure is 0.0008 µM.

For `Oc1cc(Cl)ccc1Oc1ccc(Cl)cc1Cl` [TRICLOSAN], the concentration for half-maximal inhibition (IC50) in test [1] worked out at 3 µM.

Regarding `O=C1C2=C(C(=O)c3ccccc31)[C@H]1Oc3ccccc3[C@H]1CO2` [PTEROCARPANQUINONE], the 50% inhibitory concentration (IC50) in test [4] and in test [2] was 2.5 µM each time. Turning to `COc1ccc(/C=C/C(=O)C(=Cc2ccc(F)c(F)c2)C(=O)/C=C/c2ccc(OC)c(OC)c2)cc1OC`, in test [1], the IC50 came out at 0.33 µM. On the same count and under the same terms, as for `CCCCCCCCCCCCCCCCC1(C)SC(=O)C(Cc2ccccc2)=C1O` (configuration not stated), the figure is 6 µM. Consider `C=C(C)C1CC=C(C)CC1` (configuration not stated), for which, in test [4], the 50% inhibitory concentration (IC50) came to 241 µg/mL. As to `O=C(NNC(=S)Nc1ccc(F)cc1)c1cccs1`, the IC50 in test [2] came to 33.2 µM. Molecule `C=C(C)C1CC=C(C)C(=O)C1` (configuration not stated) [CARVONE] registered an IC50 in test [4] of 16.1 µg/mL. As to `COc1cc(/C=C/C(=O)CC(=O)/C=C/c2ccc(O)c(OC)c2)ccc1O` [CURCUMIN], it took 38.3 µM to reach half-maximal inhibition in test [1] (IC50).

Turning to `Cc1nc[nH]c1-c1nnc(Nc2ccc(I)cc2)s1`, in test [4], the IC50 worked out at 4.76 µg/mL.

As for `Cc1[nH]c2c(c(=O)c1-c1ccc(Oc3ccc(OC(F)(F)F)cc3)cc1)CCCC2`, the half-inhibitory concentration (IC50) in test [4] was 0.00012 µM. As to `O=C1CCC[C@@H]2[C@H]3CCCN4CCC[C@@H](CN12)[C@@H]34` [MATRINE], the concentration for half-maximal inhibition (IC50) in test [7] was found to be 1010 µM.

In the case of `CCCCCCCCCCS(=O)(=O)CC(P(=O)(O)O)P(=O)(O)O`, inhibition in test [6] was half-maximal at 0.11 µM (IC50). In test [5], `C[C@H]1[C@H](C)CC[C@]2(C(=O)Nc3nnn[nH]3)CC[C@]3(C)C(=CC[C@@H]4[C@@]5(C)CCC(=O)C(C)(C)[C@@H]5CC[C@]43C)[C@H]12` (single isomer, unassigned) displayed an IC50 of 219 µM. In the case of `O=c1c2ccc(Oc3ccc(OC(F)(F)F)cc3)cc2[nH]c2cc(Cl)cc(F)c12`, in test [7], the half-inhibitory concentration (IC50) was found to be 0.03 µM. Consider `CCCCCCNCC(O)(P(=O)(O)O)P(=O)(O)O`, for which the concentration for half-maximal inhibition (IC50) in test [6] turned out to be 4.7 µM. The molecule `C=CC(C)(O)CCC=C(C)C` (configuration not stated) [LINALOOL] displayed an IC50 in test [4] of 4.48 µg/mL.

For the origin of these results see ChEMBL document CHEMBL6078659, “Comprehensive Insights into the Development of Antitoxoplasmosis Drugs: Current Advances, Obstacles, and Future Perspectives” (J Med Chem, 2024).
